Measurements published in paper PMC11768344 (Pharmaceutics, 2024).
≈ marks a conversion by molar mass, not a printed value. Read-outs that look alike come from different tables or passages of the source.

Columns and labels:
[1] = in vitro drug release, inverted-cup method; assay type: physicochemical; settings: for solubility: PBS pH 7.4 with 0.25% SDS (release medium), pH 7.4, read-out: solubility in the release media
Experimental: In a preliminary study, the release of ROP-ST from its oil solution was investigated at 25 °C using the dialysis method. Briefly, 0.5 mL of ROP-ST oil solution was placed into a dialysis bag (MWCO: 14 kDa) and immersed into 150 mL of PBS solution (pH 7.4) with 0.5% sodium dodecyl sulfate (SDS). The dialysis media were stirred with a magnetic bar at 100 r/min. An aliquot (1 mL) was withdrawn at predetermined time intervals, and ROP-ST in the samples was quantified using HPLC−UV. […] Therefore, an “inverted-cup” method was utilized in this study to investigate the release profile of ROP-ST (Figure 3a). Briefly, a beaker containing 150 mL of PBS solution (pH 7.4, with 0.25% SDS) as the release medium was placed on a magnetic stirrer and stirred continuously at 100 r/min at room temperature (25 °C). A transparent glass cylinder (inner diameter: 1 cm) with two open endings was placed vertically in the beaker, with one ending immersed in the PBS solution and the other ending exposed to air. Then, 1 mL of ROP-ST oil solution was added to a glass cylinder, and the ending exposed in air was sealed with a plastic thin-film. In the meantime, the beaker was also sealed with a plastic thin-film. At predetermined time intervals, an aliquot (1 mL) of the release medium were withdrawn by a syringe, and 1 mL of fresh release medium was immediately replenished. The concentration of ROP-ST in the samples was determined by HPLC−UV, and the cumulative release of ROP-ST was calculated accordingly. The experiment was performed in triplicates.
For comparison, the release of an ROP-free base from its soybean oil solution and the release of aripiprazole lauroxil (APL) from its soybean oil solution were also investigated. […] To prepare the APL oil solution, 90.4 mg of APL was dissolved and mixed in 5 mL of soybean oil. The concentration of APL was 18.08 mg/mL (27.37 mM). […] Moreover, the marketed APL injectables are suspensions; therefore, the release of APL from its suspension was also studied. This was carried out by placing 5.89 mg of APL into 150 mL of PBS7.4 solution directly, which contained 0.25% SDS. The solution was also stirred and sampled in the same way as described above. APL was analyzed according to the previously reported method.

[2] = saturated solubility (shake, 37 °C, 72 h, HPLC-UV); assay type: physicochemical; settings: for SPBS 7.4, the solubility in PBS 7.4 solution: PBS pH 7.4, 37 °C
Experimental: After centrifugation at 12,000 r/min for 10 min (TGL-16C centrifuge; Anting Scientific Instrument Company, Shanghai, China), the supernatant was withdrawn, and the solution was filtered through a syringe filter (pore size: 0.45 μm). […] The experiments were performed in triplicates.
Quantification of ROP-ST was performed using an HPLC−UV system consisting of an LC-10AT VP pump, an SPD-10A VP UV–vis detector, a CTO-10A column oven, a SIL-10AF autosampler, and an SCL-10A VP controller (Shimadzu Corporation; Kyoto, Japan). Data were collected and processed using LC-solution software. Isocratic elution was performed on a Diamonsil C18 column (150 mm × 4.6 mm I.D., 5 µm), and an EasyGuard C18 guard column (10 × 4.0 mm I.D., 5 µm) was mounted upstream from the analytical column (Dikma Technologies; Beijing, China). The column temperature was kept at 35 °C, and the UV absorbance wavelength was set at 215 nm. The mobile phase, comprising 88% (v/v) acetonitrile and 12% (v/v) water with 0.1% (v/v) trifluoroacetic acid, was used after filtering through a filter membrane (pore size: 0.45 μm) and degassing within an ultrasonic water bath (KQ-500VDE Ultrasonic Cleaner; Kunshan, China) for 40 min. The flow rate was maintained at 1.0 mL/min, and the injection volume was 20 µL. The calibration curve was linear in the range of 1–200 μM, and the correlation coefficient was >0.9998. […] The lower limit of quantification (LOQ) of ROP-ST was 1 μM (equal to 0.57 μg/mL). The validation of the HPLC method can be found in Supplemental Materials.
Briefly, the column temperature was kept at 35 °C, and the UV absorbance wavelength was set at 240 nm. The mobile phase comprised 50% (v/v) acetonitrile and 50% (v/v) phosphate buffer. The phosphate buffer was prepared by mixing 1.3 mL of sodium dihydrogen phosphate (1 mol/L) with 32.5 mL of disodium hydrogen phosphate (0.5 mol/L) and diluting to 1 L by water, and then the pH value was adjusted to 8.0. The flow rate was maintained at 1.0 mL/min, and the injection volume was 20 µL. The validation of the quantification method can be found in the Supplementary Materials.

[3] = n-octanol/water partition coefficient (experimental Log P); assay type: physicochemical; settings: 37 °C, read-out: Log Pexp., experimental Log P
Experimental: Approximately 1 mg of ROP-ST and ROP-free base were dissolved in a bi-phase mixture of water-saturated n-octanol solution and n-octanol-saturated water (5 mL:5 mL), respectively. After equilibration in a water bath shaker (37 °C) for 24 h, the two phases were sampled separately and diluted with acetonitrile. […] The Log P value of each compound was calculated accordingly. The experiments were performed in triplicates.

[4] = in vitro drug release, dialysis method (preliminary); assay type: physicochemical; settings: oil solution in dialysis bag MWCO 14 kDa, PBS pH 7.4 with 0.5% SDS, 25 °C, until 96 h
Experimental: In a preliminary study, the release of ROP-ST from its oil solution was investigated at 25 °C using the dialysis method. Briefly, 0.5 mL of ROP-ST oil solution was placed into a dialysis bag (MWCO: 14 kDa) and immersed into 150 mL of PBS solution (pH 7.4) with 0.5% sodium dodecyl sulfate (SDS). The dialysis media were stirred with a magnetic bar at 100 r/min. An aliquot (1 mL) was withdrawn at predetermined time intervals, and ROP-ST in the samples was quantified using HPLC−UV. […] Therefore, an “inverted-cup” method was utilized in this study to investigate the release profile of ROP-ST (Figure 3a). Briefly, a beaker containing 150 mL of PBS solution (pH 7.4, with 0.25% SDS) as the release medium was placed on a magnetic stirrer and stirred continuously at 100 r/min at room temperature (25 °C). A transparent glass cylinder (inner diameter: 1 cm) with two open endings was placed vertically in the beaker, with one ending immersed in the PBS solution and the other ending exposed to air. Then, 1 mL of ROP-ST oil solution was added to a glass cylinder, and the ending exposed in air was sealed with a plastic thin-film. In the meantime, the beaker was also sealed with a plastic thin-film. […] The concentration of ROP-ST in the samples was determined by HPLC−UV, and the cumulative release of ROP-ST was calculated accordingly. […]

[5] = plasma stability study of ROP-ST; assay type: in vitro ADME, rat; settings: 25 °C
Experimental: Healthy male Sprague–Dawley rats (SD rats, 200 ± 20 g) were provided by the Animal Experiment Center of Nantong University (protocol code of the ethical proof: S20240617-005). Blood samples were collected from the orbital cavity and centrifuged at 10,000 r/min for 10 min (TGL-16C centrifuge; Anting Scientific Instrument Company, Shanghai, China) to obtain blank plasma. The blank plasma was mixed with saline to obtain plasma solutions of 10%, 20%, and 40% (v/v) plasma, respectively. A half milliliter of saline, or 10%, 20%, and 40% plasma solution, was added to an EP tube, respectively, followed by adding 50 μL of methanolic solution of ROP-ST (concentration: 1100 μM) to each tube. The tubes were sealed and placed in a water bath shaker (37 °C). Three tubes were taken at each predetermined time point (0, 10, 20, 30, 40, 50, 60, 70, 80, and 90 min, respectively), rapidly frozen in liquid nitrogen to terminate the enzymatic reaction, and then stored at −80 °C. The samples were lyophilized to obtain dry residues. Before analysis, the residues were dissolved in methanol and subjected to ultrasonic treatment for 30 s. The resulting solution was filtered through a filter membrane (pore size: 0.45 μm), and the remaining levels of ROP-ST in subsequent filtrates were quantified by HPLC−UV. The hydrolysis rate constants (kobs) of the prodrug were calculated by plotting the natural logarithm of the remaining percentage against time. The corresponding half-life (t1/2) was then calculated (t1/2 = ln2/kobs). The experiment was conducted in triplicates.
(§1) The enzymatic stability of ROP-ST was examined by placing the methanolic solution of the prodrug into rat plasma solution and porcine liver esterase solution. […] The hydrolysis rate constants (kobs) of the prodrug were calculated by plotting the natural logarithm of the remaining percentage against time. The corresponding half-life (t1/2) was then calculated (t1/2 = ln2/kobs). Data at 25 °C were fitted approximately to a first-order kinetic equation for the prodrug loss (Figure 4). It should be noted that the actual hydrolytic kinetics of such lipophilic prodrugs by enzymes could be complicated in vitro and in vivo, which may not fully comply with the first-order kinetics. […] The rate of enzymatic cleavage increases as the concentration of rat plasma or the concentration of porcine liver esterase increases. In fact, the injection site of ROP-ST is muscle, which contains less esterase than the plasma. Therefore, it is logical to hypothesize that the bioconversion rate of ROP-ST in the muscle should be slower, which enables sustained release and long-acting efficacy.

[6] = liver esterase stability study of ROP-ST; assay type: in vitro ADME, porcine; settings: 0 U/mL, phosphate buffer (pH 8.0) without liver esterase, 25 °C
Experimental: (§2) Porcine liver esterase solutions were prepared by dissolving 4, 8, and 16 mg of porcine liver esterase powder (15 U/mg) into 12 mL of phosphate buffer (pH 8.0) to obtain porcine liver esterase solutions with the concentrations of 5, 10 and 20 U/mL, respectively. A half milliliter of blank buffer solution (pH 8 without enzyme) or porcine liver esterase solutions with the concentration of 5, 10, or 20 U/mL, respectively, was added to an EP tube, followed by adding 50 μL of methanolic solution of ROP-ST (concentration: 1100 μM) to each tube. The tubes were sealed and placed in a water bath shaker (25 °C) according to product instructions and a previous report. Three tubes were taken at each predetermined time point (0, 30, 45, 60, 75, 90, 105, and 120 min, respectively), rapidly frozen in liquid nitrogen to terminate the enzymatic reaction, and then stored at −80 °C. The subsequent treatments of the samples complied with the procedures described in “Section 2.5.1.”. The experiment was conducted in triplicates.
as §1

porcine liver esterase = assay: liver esterase stability study of ROP-ST; assay type: in vitro ADME; settings: for half-life at 100 µM: pig, porcine liver esterase solution
Experimental: as §2, §1

[7] = no reference given; cited from earlier work
[8] = 0% rat plasma (saline solution without rat plasma)
[9] = 5 U/mL porcine liver esterase, pH 8.0, 25 °C
[10] = 10 U/mL porcine liver esterase, pH 8.0, 25 °C
[11] = 20 U/mL porcine liver esterase, pH 8.0, 25 °C

SMILES: CCCCCCCCCCCC(=O)OCN1C(=O)CCc2ccc(OCCCCN3CCN(c4cccc(Cl)c4Cl)CC3)cc21 [APL, aripiprazole lauroxil, reference compound]
- solubility [1]: ~209 µM (≈ 138 µg/mL)

SMILES: CCCN1CCCC[C@H]1C(=O)Nc1c(C)cccc1C [ROP, Ropivacaine]
- released in the first 12 h ([1]; from soybean oil solution 27.37 mM, PBS pH 7.4 with 0.25% SDS, 25 °C): ~80%
- solubility at 72 h ([2]; PBS buffer pH 7.4, pH 7.4, PBS pH 7.4, 37 °C, read-out: SPBS 7.4, the solubility in PBS 7.4 solution): ~1000 µM
- solubility at 72 h ([2]; PBS buffer pH 7.4, pH 7.4, PBS pH 7.4, 37 °C, read-out: solubility in PBS 7.4 solution): ~270 µg/mL
- SPBS 7.4, the solubility in PBS 7.4 solution [2]: 1040 ± 40 µM
- solubility at 72 h ([2]; soybean oil, 37 °C, read-out: Soil, the solubility in soybean oil): 37000 ± 530 µM
- logP at 24 h [3]: 1.88 ± 0.17

SMILES: CCCCCCCCCCCCCCCCCC(=O)OCN(C(=O)C1CCCCN1CCC)c1c(C)cccc1C (stereo not drawn) [ROP-ST, ropivacaine stearoxil]
- ROP-ST detected in dialysis medium [4]: no ROP-ST was detected
- solubility [1]: ~1500 µM (≈ 856 µg/mL)
- total cumulative release ([1]; from soybean oil solution 27.37 mM, PBS pH 7.4 with 0.25% SDS, 25 °C, 72 h): 69.55%
- duration of sustained release ([1]; from soybean oil solution, PBS pH 7.4 with 0.25% SDS, 25 °C): more than 72 h
- half-life at 100 µM [5, 8]: 82.2 ± 26.2 h
- k × 10^3, first-order hydrolysis rate constant [5, 8]: 9.1 ± 3.2 h^−1
- k × 10^3, first-order hydrolysis rate constant ([5]; 10% (v/v) rat plasma): 436.6 ± 17.2 h^−1
- k × 10^3, first-order hydrolysis rate constant ([5]; 20% (v/v) rat plasma): 665.0 ± 35.2 h^−1
- k × 10^3, first-order hydrolysis rate constant ([5]; 40% (v/v) rat plasma): 666.9 ± 30.7 h^−1
- half-life at 100 µM ([5]; male, Sprague-Dawley, 10% (v/v) rat plasma in saline, 10% (v/v) rat plasma): 1.59 ± 0.06 h
- half-life at 100 µM ([5]; male, Sprague-Dawley, 20% (v/v) rat plasma in saline, 20% (v/v) rat plasma): 1.04 ± 0.06 h
- half-life at 100 µM ([5]; male, Sprague-Dawley, 40% (v/v) rat plasma in saline, 40% (v/v) rat plasma): 1.04 ± 0.05 h
- half-life at 100 µM [6]: 88.4 ± 14.9 h
- k × 10^3, first-order hydrolysis rate constant (porcine liver esterase; 0 U/mL, phosphate buffer (pH 8.0) without liver esterase, 25 °C): 8.0 ±1.3 h^−1
- k × 10^3, first-order hydrolysis rate constant (porcine liver esterase; [9]): 107.9 ± 29.0 h^−1
- k × 10^3, first-order hydrolysis rate constant (porcine liver esterase; [10]): 159.6 ±1.3 h^−1
- k × 10^3, first-order hydrolysis rate constant (porcine liver esterase; [11]): 226.1 ± 24.7 h^−1
- half-life at 100 µM (porcine liver esterase; [9]): 6.78 ± 1.99 h
- half-life at 100 µM (porcine liver esterase; [10]): 4.34 ± 0.03 h
- half-life at 100 µM (porcine liver esterase; [11]): 3.09 ± 0.36 h
- SPBS 7.4, the solubility in PBS 7.4 solution [2]: <LOQ
- Soil, the solubility in soybean oil ([2]; soybean oil, 37 °C): Miscible

SMILES: O=C1CCc2ccc(OCCCCN3CCN(c4cccc(Cl)c4Cl)CC3)cc2N1 [aripiprazole]
- pKa [7]: 7.46
